Where a name gives a salt, the structure may show the parent alone.
What was measured:
rat SAPK (isoform b) = rat SAPK (isoform b) (Rattus norvegicus, UniProt P49187); assay: SAPK FlashPlate Assay (c-Jun phosphorylation); format: biochemical; conditions: purified rat SAPK activated by MEKK-1/MKK4, GST-c-Jun substrate, 33P-ATP, 30 minutes at 37° C.
Procedure: "IC50 " refers to the concentration of a particular 4-aryloxindole or 4-heteroaryloxidole required to inhibit 50% of the SAPK protein kinase catalytic activity. IC50 can be measured, inter alia, using the assay described herein in Example 66.
Human JNK is highly homologous to rat SAPK. To measure the inhibitory activity of test compounds, the compounds were tested in the rat SAPK assay.
For the SAPK assay, purified GST-c-Jun (a chimeric protein containing c-Jun, a natural substrate of JNK) was coated on 96 well FlashPlates (New England Nuclear, Boston, Mass.). Purified rat SAPK (isoform b, Kyriakis et al. supra) was preincubated with preparations containing MEKK-1 and MKK4 for 30 minutes at 37° C. in assay buffer containing 25 mM HEPES, pH 7.5, 150 mM NaCl, 20 mM MgCl2, 2 mM DTT, 0.001% Tween 20, 1 mM ATP freshly added. In the preincubation step, MEKK-1 phosphorylates and activates MKK4, which in turn phosphorylates and activates SAPK. The activated SAPK was then added to the c-Jun coated FlashPlates along with ^33 P-ATP ([…] per reaction) and test compounds. The plates were incubated for 30 minutes at 37° C., then washed with PBS, 0.01% Tween 20, and counted in the Topcount scintillation counter (Packard Instrument Co., Downers Grove, Ill.). Dilutions of compounds were tested in duplicate in each assay. The percent inhibition of c-Jun phosphorylation (a measure of inhibition of SAPK activity) was determined by the following formula: [formula]
where "test compound" refers to the average counts per minute of the test duplicates, "nonspecific" refers to the average counts per minute when no SAPK was added, and "total" refers to the average counts per minute when no compound was added.

IL-6 = assay: U937 Cell-Based Assay, IL-6 ELISA after LPS stimulation; conditions: Homo sapiens, U-937, PMA-differentiated U937 cells, 1 hour preincubation, 24 hours, supernatant ELISA, read-out: IC50 (pM) in U837 Cells IL6
Procedure: (§1) U937 Cell-Based Assay The U937 cells, a human monocyte/macrophage cell line, was obtained from the ATTC and grown in the recommended medium. These cells when stimulated with lipopolysaccharide (LPS) release TNF, another inflammatory mediator implicated in the JNK pathway ([…] et al., supra) and IL-6. In this assay the ability of a test compound to block TNF expression is evaluated. The U937 cells were suspension cells which when stimulated with phorbol myristate acetate (PMA) (Sigma, St. Louis, Mo.) became adherent. After PMA stimulation the cells were washed in cell culture medium and plated at 1×10^5 cells/well in 96 well plates. The following day the test compounds and dexamethasone control (Sigma, St. Louis, Mo.) were added to the cells for 1 hour of preincubation. Then the cells were stimulated with LPS (Sigma, St. Louis, Mo.). After an additional 24 hours of incubation the supernatants were removed and assayed for TNF-α and IL-6 by ELISA. The IL-6 ELISA was run as described previously for the MG63 assay. […] The intensity of the color (measured at 450 nm) is proportional to the amount of TNF-α or IL-6 produced by the U937 cells upon exposure to LPS and the test compounds. […] IC50 values for each test compound were determined from the linear regression of a plot of the logarithm of the concentration of compound versus amount of TNF-α or IL-6 secreted. […]

TNF-α = assay: U937 Cell-Based Assay, TNF-α ELISA after LPS stimulation; conditions: Homo sapiens, U-937, read-out: IC50 in U837 Cells TNF, PMA-differentiated U937 cells, 1 hour preincubation, 24 hours, supernatant ELISA
Procedure: as §1

Chain of rat SAPK (isoform b) (P49187 whole entry, canonical isoform): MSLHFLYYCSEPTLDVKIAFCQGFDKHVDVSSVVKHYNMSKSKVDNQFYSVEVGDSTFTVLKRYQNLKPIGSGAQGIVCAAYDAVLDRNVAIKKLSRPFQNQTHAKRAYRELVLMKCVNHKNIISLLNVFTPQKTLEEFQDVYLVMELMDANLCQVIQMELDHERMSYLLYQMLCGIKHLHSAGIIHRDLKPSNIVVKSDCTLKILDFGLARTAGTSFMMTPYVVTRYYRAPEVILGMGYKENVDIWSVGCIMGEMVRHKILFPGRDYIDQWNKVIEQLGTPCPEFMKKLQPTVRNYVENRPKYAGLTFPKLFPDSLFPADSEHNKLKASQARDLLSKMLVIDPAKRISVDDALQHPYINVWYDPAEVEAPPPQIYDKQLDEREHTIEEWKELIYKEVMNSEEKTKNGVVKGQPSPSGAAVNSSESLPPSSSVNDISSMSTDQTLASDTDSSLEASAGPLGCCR

## COC(=O)c1ccc(-c2c(NC(=O)Cc3cccs3)ccc3c2/C(=C/c2[nH]ccc2OC)C(=O)N3)cc1 [WW, (Z)-4-[2,3-Dihydro-3-[(3-methoxy-1H-pyrrol-2-yl)methylene]-2-oxo-5-[(2-thienylacetyl)amino]-1H-indol-4-yl]-benzoic Acid Methyl Ester]
Rat SAPK (isoform b)
  IC50: < 0.15 µM
IL-6
  IC50: 7.8e+06 pM
TNF-α
  IC50: 1.35e+06 pM

## COc1cc[nH]c1/C=C1\C(=O)Nc2ccc(NC(=O)Cc3cccs3)c(-c3ccccc3)c21 [LL, (Z)-N-[2,3-Dihydro-3-[(3-methoxy-1H-pyrrol-2-yl)methylene]-2-oxo-4-phenyl-1H-indol-5-yl]-2-thiopheneacetamide]
Rat SAPK (isoform b)
  IC50: < 0.15 µM

## COC(=O)c1ccc(-c2c([N+](=O)[O-])ccc3c2/C(=C/c2[nH]ccc2OC)C(=O)N3)cc1 [RR, (Z)-4-[2,3-Dihydro-3-[(3-methoxy-1H-pyrrol-2-yl)methylene]-5-nitro-2oxo-1H-indol-4-yl]-benzoic acid methyl ester]
Rat SAPK (isoform b)
  IC50: < 0.15 µM

## COc1cc[nH]c1/C=C1\C(=O)Nc2ccc([N+](=O)[O-])c(-c3ccc(O)cc3)c21 [JJ, (Z)-1,3-Dihydro-4-(4-hydroxyphenyl)-3-[(3-methoxy-1H-pyrrol-2-yl)methylene]-5-nitro-2H-indol-2-one]
Rat SAPK (isoform b)
  IC50: < 0.15 µM

## COc1cc[nH]c1/C=C1\C(=O)Nc2ccc(N)c(-c3ccc(O)cc3)c21 [NN, (Z)-5-Amino-1,3-dihydro-4-(4-hydroxyphenyl)-3-[(3-methoxy-1H-pyrrol-2-yl)methylene]-2H-indol-2-one]
Rat SAPK (isoform b)
  IC50: < 0.15 µM

## COC(=O)c1ccc(-c2c(N)ccc3c2/C(=C/c2[nH]ccc2OC)C(=O)N3)cc1 [SS, (Z)-4-[5-Amino-2,3-dihydro-3-[(3-methoxy-1H-pyrrol-2-yl)methylene]-2-oxo-1H-indol-4-yl]-benzoic acid methyl ester]
Rat SAPK (isoform b)
  IC50: < 0.15 µM

## COc1cc[nH]c1/C=C1\C(=O)Nc2ccc(N)c(-c3ccccc3)c21 [PP, (Z)-5-Amino-1,3-dihydro-3-[(3-methoxy-1H-pyrrol-2-yl)methylene]-4-phenyl-2H-indol-2-one]
Rat SAPK (isoform b)
  IC50: < 0.15 µM

## COc1cc[nH]c1/C=C1\C(=O)Nc2cccc(-c3cccc4[nH]ccc34)c21 [TT, (Z)-1,3-Dihydro-4-(4-indolyl)-3-[(3-methoxy-1H-pyrrol-2-yl)methylene]-2H-indol-2-one]
Rat SAPK (isoform b)
  IC50: < 0.15 µM

## Nc1cccc(-c2cccc3c2/C(=C/c2ccc[nH]2)C(=O)N3)c1 [D, (Z)-4-(3-Aminophenyl)-1,3-dihydro-3-[(1H-pyrrol-2-yl)methylene]-2H-indol-2-one hydrochloride salt]
IL-6
  IC50: 6.33e+06 pM
TNF-α
  IC50: 1.17e+06 pM

## COc1cc[nH]c1/C=C1\C(=O)Nc2cccc(-c3cccc(N)c3)c21 [EE, (Z)-4-(3-Aminophenyl)-1,3-dihydro-3-[(3-methoxy-1H-pyrrol-2-yl)methylene]-2H-indol-2-one]
Rat SAPK (isoform b)
  IC50: < 0.15 µM

## COc1cc[nH]c1/C=C1\C(=O)Nc2ccc([N+](=O)[O-])c(-c3ccccc3)c21 [KK, (Z)-1,3-Dihydro-3-[(3-methoxy-1H-pyrrol-2-yl)methylene]-5-nitro-4-phenyl-2H-indol-2-one]
Rat SAPK (isoform b)
  IC50: < 0.15 µM

## COc1cc[nH]c1/C=C1\C(=O)Nc2ccc(NC(=O)Cc3cccs3)c(-c3ccc(O)cc3)c21 [OO, (Z)-N-[2,3-Dihydro-4-(4-hydroxyphenyl)-3-[(3-methoxy-1H-pyrrol-2-yl)methylene]-2-oxo-1H-indol-5-yl]-2-thiopheneacetamide]
Rat SAPK (isoform b)
  IC50: < 0.15 µM

## COc1cc[nH]c1/C=C1\C(=O)Nc2cccc(-c3ccccc3)c21 [GG, (Z)-1,3-Dihydro-4-phenyl-3-[(3-methoxy-1H-pyrrol-2-yl)methylene]-2H-indol-2-one]
Rat SAPK (isoform b)
  IC50: < 0.15 µM

## COc1cc[nH]c1/C=C1\C(=O)Nc2cccc(-c3ccc4[nH]ccc4c3)c21 [MM, (Z)-1,3-Dihydro-4-(5-indolyl)-3-[(3-methoxy-1H-pyrrol-2-yl)methylene]-2H-indol-2-one]
Rat SAPK (isoform b)
  IC50: < 0.15 µM

## COc1cc[nH]c1/C=C1\C(=O)Nc2ccc(NC(=O)Cc3cccs3)c(-c3ccc(C(=O)O)cc3)c21 [XX, (Z)-4-[2,3-Dihydro-3-[(3-methoxy-1H-pyrrol-2-yl)methylene]-2-oxo-5-[(2-thienylacetyl)amino]-1H-indol-4-yl]-benzoic acid]
Rat SAPK (isoform b)
  IC50: < 0.15 µM

## COc1cc[nH]c1/C=C1\C(=O)Nc2cccc(-c3ccc4cc[nH]c4c3)c21 [UU, (Z)-1,3-Dihydro-4-(6-indolyl)-3-[(3-methoxy-1H-pyrrol-2-yl)methylone]-2H-indol-2-one]
Rat SAPK (isoform b)
  IC50: < 0.15 µM

## Nc1cccc(-c2cccc3c2/C(=C/c2ccc[nH]2)C(=O)N3)c1 [Compound C, (Z)-4-(3-Aminophenyl)-1,3-dihydro-3-[(1H-pyrrol-2-yl)methylene]-2H-indol-2-one]
Rat SAPK (isoform b)
  IC50: < 0.15 µM

## COc1cc[nH]c1/C=C1\C(=O)Nc2ccc(NC(=O)Cc3cccs3)c(-c3ccc4cc[nH]c4c3)c21 [VV, (Z)-N-[2,3-Dihydro-4-(6-indolyl)-3-[(3-methoxy-1H-pyrrol-2-yl)methylene]-2-oxo-1H-indol-5-yl]-2-thiopheneacetamide]
Rat SAPK (isoform b)
  IC50: < 0.15 µM

## COc1cc[nH]c1/C=C1\C(=O)Nc2ccc(NC(=O)Cc3cccs3)c(-c3ccc4[nH]ccc4c3)c21 [QQ, (Z)-N-[2,3-dihydro-4-(5-indolyl)-3-[(3-methoxy-1H-pyrrol-2-yl)methylene]-2-oxo-1H-indol-5-yl]-2-thiopheneacetamide]
Rat SAPK (isoform b)
  IC50: < 0.15 µM

— patent US6307056A, “4-aryloxindoles” (Hoffman-La Roche Inc., priority 1999, dated 2001)
